These are literature values, as cited in US20050004224A1, “Treatment of Alzheimer's disease with the R(-) isomer of a 2-arylpropionic acid non-steroidal anti-inflammatory drug alone or in combination with a cyclooxygenase-2 selective inhibitor” (Pharmacia Corporation, priority 2003, published 2005).

For data set [1] the following is noted: Asanuma et al. 2001.
In a further data set the test system is A-beta 1-42 peptide. The following applies: Weggen et al. 2001.
The next data set has as its system murine cells. The conditions noted are these: Ogawa et al. 2000.
The conditions of data set [2]: Lambat et al. 2000.
For a further data set, the system named is neuronal cells. The conditions noted are these: Blasko et al. 2001.
Another data set deals with AD models. The conditions noted are these: chronic ibuprofen; some AD models; Lim et al. 2001.
The conditions of data set [3]: Lambat et al. 2000. This is another data set of the same source.
For data set [4], the system named is patients with osteoarthritis. The conditions noted are these: Singer et al. 2000.

On to `CC(C(=O)O)c1cccc(C(=O)c2ccccc2)c1` (stereo not drawn) [ketoprofen], for which the nitric oxide-scavenging ability entry in data set [1] is on record as “have such activity”.

Take `COc1ccc2c(c1)c(CC(=O)O)c(C)n2C(=O)c1ccc(Cl)cc1` [indomethacin]: the “production of the amyloidogenic A-beta 1-42 peptide” value in the data set on A-beta 1-42 peptide is “reduced”. Also, the “beta-amyloid protein and interferon-gamma-induced NO production” value in the data set with murine cells is listed as “reduced”.

In the case of `CC(=O)Oc1ccccc1C(=O)O` [aspirin], the “beta-amyloid protein and interferon-gamma-induced NO production” value in the data set with murine cells is “did not produce such an effect”.

As to `CSc1ccc(/C=C2/C(C)=C(CC(=O)O)c3cc(F)ccc32)cc1` [sulindac sulfide], the “production of the amyloidogenic A-beta 1-42 peptide” value in the data set with A-beta 1-42 peptide was “reduced”.

For the molecule `CC(C)Cc1ccc(C(C)C(=O)O)cc1` (stereo not drawn) [ibuprofen, α-methyl-4-[isobutyl]phenylacetic acid], the “quinolinic acid-induced lipid peroxidation” value in data set [2] is recorded as “reducing”. Besides, the “production of the amyloidogenic A-beta 1-42 peptide” value in the data set with A-beta 1-42 peptide is on record as “reduced”. The “cytokine-induced amyloid Beta production” value in the data set with neuronal cells is on record as “reduced”. Moreover, the “inflammation and plaque-related pathology” value in the data set on AD models is reported as “suppress”. Also, the cyanide-induced speroxide production result in data set [3] is reported as “reducing”. The “beta-amyloid protein and interferon-gamma-induced NO production” value with murine cells is “reduced”.

`CC(C)Cc1ccc([C@H](C)C(=O)O)cc1` (single isomer, unassigned) [S(+) isomer of ibuprofen]: the “effective NSAID for patients with osteoarthritis” value in data set [4] is on record as “effective”.
